The values below come from patent publication US7590493B2, “Methods for determining hepatotoxins” (priority 2000, dated 2009).

The conditions of series [1]: cited from earlier work.
For series [2] the following is noted: in vivo; cited from earlier work.
For series [3] the following is noted: 24 hours, cited from earlier work.
Series [4] is described as follows: Inventors' rat studies: liver pathology and clinical chemistry.
The subject of another series is c-fos, c-jun, c-myc. Conditions: post dose, acute administration; cited from earlier work.
For series [5] the following is noted: cited from earlier work. This is another data set of the same source.
For series [6] the following is noted: cited from earlier work. The source holds these as a separate data set.
For series [7] the following is noted: amitriptyline 600 mg/kg oral, PB 80 mg/kg IP, cited from earlier work; for microsomal phosphatidylcholine content: 6-24 hr.
The conditions of series [8]: single oral dose 600 mg/kg, cited from earlier work.
The conditions of series [9]: single dose, within 24 hours (Fracasso 1990); cited from earlier work.
The next series relates to primary rat hepatocytes. Conditions: in vitro; cited from earlier work.
For series [10], the system named is human hepatoma cell lines. Particulars: in vitro; cited from earlier work.

For `C#C[C@]1(O)CC[C@H]2[C@@H]3CCc4cc(O)ccc4[C@H]3CC[C@@]21C` [17α-ethinylestradiol], the bile flow result in series [1] (after 3 days of drug administration) is “decrease”. In addition, in series [1] (rat, in vivo), the “plasma cholesterol and plasma triglyceride levels” value is “decrease”; the “plasma levels of bilirubin, bile salts, AST and ALT” value is “not changed”.
On to `S=C=Nc1cccc2ccccc12` [ANIT, alpha-naphthylisothiocyante], for which, in [2], the “liver weight vs control-treated” value was “significantly heavier”; the “serum ALT, gamma-glutamyl transpeptidase, total bilirubin, lipid peroxide and total bile acids” value is reported as “significant increases”. Besides, the “levels of total bilirubin, alkaline phosphatase, serum glutamic oxaloacetic transaminase and serum glutamic pyruvic transaminase” value in [3] (80 mg/kg oral in olive oil) is on record as “significantly increased”. The total bile flow result in series [3] (80 mg/kg oral) is on record as “reduced”.
As for `O=C(CCN1CCN2CCCC2C1)N1c2ccccc2Sc2ccc(Cl)cc21` (stereo not shown) [AY-25329], the “mitosis rates / mitotic activity” value in series [4] (rat liver) was “increased”. Moreover, the glycogen levels entry in [4] (rat liver, all rats examined) was “decreased”.
Regarding `CC(O)(CS(=O)(=O)c1ccc(F)cc1)C(=O)Nc1ccc(C#N)c(C(F)(F)F)c1` (stereo not shown) [Bicalutamide], the hepatocellular hypertrophy entry in series [4] (rat) was “minor degree”. Moreover, the “mitosis rates / mitotic activity” value in series [4] (rat liver) is reported as “increase”.
On to `ClC(Cl)(Cl)Cl` [CCl4, carbon tetrachloride], for which, in the series with c-fos, c-jun, c-myc, the “time of peak hepatic mRNA level, c-fos” value was 1 to 2 h; the “time of peak hepatic mRNA level, c-jun” value was 3 h; the “time of peak hepatic mRNA level, c-myc” value was 1 h. Besides, the “ALT and AST peak levels, increase” value in series [5] (0.1, 1, 2, 3, 4 mL/kg ip, […] po, within 48 hours post dose) is on record as 5-10 fold. The “serum α-glutathione s-transferase (α-GST) levels” value in series [5] (25 μL/kg po, as early as 2 hours) is reported as “Significant increases”.
With `CC(=O)O[C@]1(C(C)=O)CC[C@H]2[C@@H]3C=C(Cl)C4=CC(=O)[C@@H]5C[C@@H]5[C@]4(C)[C@H]3CC[C@@]21C` [CPA, cyproterone acetate], the “occurrence of S phase cells” value in [6] (rat liver) is reported as “increased”. In [6] (single oral dose 100 mg CPA/kg body weight, after 16 hours), the DNA repair activity entry is given as “continuous DNA repair activity was observed”.
In the case of `CCOC(=O)C(C)(C)Oc1ccc(Cl)cc1` [Clofibrate], the hepatocellular alterations result in [4] (following early AST/ALT increases) is listed as “dose-dependent”. In addition, the “mitosis rates / mitotic activity” value in series [4] (rat liver) is “increased”. In addition, the “AST and ALT levels” value in [4] (rat, in vivo) was “early increases”.
For `CCC1(c2ccccc2)C(=O)NC(=O)NC1=O` [PB, phenobarbital], the microsomal phosphatidylcholine content result in series [7] is “increase”.
For the compound `CN(C)CCC=C1c2ccccc2CCc2ccccc21` [amitriptyline], in series [7], the microsomal phosphatidylcholine content result is given as “increase”; the “levels of GAT and PCT” value was “slightly affected”; the “levels of PPH and CPT” value was “significantly altered”. The “aminolevulinic acid (ALA) activity” value in [8] (12 and 24 hours) was “marked increase”. Further, in series [8], the “cytochrome P450 (CYP450) content” value is “remained the same”; the “total heme and cytochrome b5 levels” value is given as “increased”.
Consider `COc1ccc2c(c1)c(CC(=O)O)c(C)n2C(=O)c1ccc(Cl)cc1` [indomethacin], for which the “liver and renal microsomal enzymes, including CYP450” value in [9] was “reduce”.
As to `Nc1c2c(nc3ccccc13)CCCC2` [tacrine], the cytotoxicity result (with primary rat hepatocytes; in [10]) was “displayed cytotoxicity” in each case.
